Assay results reported in US11786507B2, “Methods of treating HIV-associated neurological disorders (HAND)” (priority 2020, dated 2023).

Experiments:
Format in all cases: in vivo, mouse
iTat mice [1] = assay: Open Field Test (OPT), locomotor activity; details: PAM 15 mg/kg/day s.c. vs DMSO
Source text: (§1) Doxycycline (Dox)-inducible and astrocyte-specific HIV-1 Tat-transgenic mice (iTat) were generated as previously described.^38 Wild-type (Wt, C57BL/6) and α7 nAChR knockout mice (α7^−/−, B6.129S7-Chrna^7tm1Ba/J) were purchased from the Jackson Laboratory (Bar Harbor, ME). All the animal procedures were approved by the Institutional Animal Care and Use Committee. Mice were housed with a 12-hour light and 12-hour dark photoperiod and provided water and food ad libitum. α7^−/− iTat mice were generated by cross breeding iTat mice with α7^−/− mice. α7^−/− genotyping was slightly modified with the JumpStart™ Taq DNA Polymerase-based PCR (JumpStart™ Taq DNA Polymerase, Sigma, catalog #D9307). […] Mice of 10-14 weeks old with body weights of 20-35 grams were fed with Dox-containing diet (0.625 g/kg, Envigo, catalog #TD.01306) as stated.
(§2) Open Field Test (OPT) and Morris Water Maze (MWZ) were performed sequentially using a computerized video tracking system (Anymaze, Stoelting) to determine the spontaneous locomotor activity and spatial learning and memory, respectively. For OPT, each mouse was allowed to move freely around a clear acrylic chamber (40.5×40.5×30.5 cm) for 10 minutes. Travel distance and maximum speed was determined by the AnyMaze software. For MWZ, a circle pool (1.2 m diameter) surrounded with a curtain was divided into four equal quadrants, and four signs with different shape were fixed onto the middle of each quadrant wall above the opaque water (24±1° C.). A hidden platform (1.5 cm below water surface) was put into a certain quadrant. Two stages consisting of 5-day training and probe test were carried out. In the training stage, four trials with a 15-20 minute interval were conducted in the every-day training, and for each trial mice were allowed to freely seek the platform within 90 seconds right after they were randomly put into one quadrant facing to the pool wall. If the mice found the platform within 90 seconds, 10 seconds would be added to allow them staying on the platform for memorizing, however, if failed, they would be directed toward the platform and allowed to stay on it for 15 seconds. Mice that were immobile or floating and unable to find the platform during the training stages were excluded from the experiments. Probe test was carried out on the next day following the 5-day training stage with a 60 seconds trial, and the platform was removed to prevent the mice from climbing onto it during the testing. One day after the behavioral tests, mice were euthanized and the brains were harvested.
(§3) To determine if α7 nAChR is involved in HAND, iTat mice were fed with Dox-containing food pellets for 7 days, injected s.c. with a well-studied and highly specific positive allosteric modulator (PAM) PNU-120596 of α7 nAChR^73,74 for 5 days, and then subjected to open field test (OPT) for locomotor activity on day 14, and Morris Water Maze test (MWZ) for learning and spatial memory on day 15-20, and euthanized to harvest tissues on day 21 (FIG. 1A). Dox-containing food pellet feeding and PAM injection continued during the next 7 days of behavioral tests. To minimize the effects of injection on behavioral tests, PAM was injected 5 hours after each behavioral test.

iTat mice [2] = assay: Morris Water Maze (MWZ), training stage and probe test; details: mouse, in vivo
Source text: as §1, §2
as §3, with “[…],” for “injected s.c. with a well-studied and highly specific positive allosteric modulator (PAM) PNU-120596 of α7 nAChR^73,74 for 5 days,”

α7 nAChR = α7 nAChR expression in brain tissue (Western blotting, immunofluorescence)
Experimental: FIG. 11A-FIG. 11E show the α7 nAChR expression in the brain, cortical neurons, microglia, and astrocytes in response to Tat and PAM. Western blotting was performed in the same samples of FIG. 1D (FIG. 11A & FIG. 11B, mouse brain tissue, n=6/group, three males, and three females) and FIG. 4A (FIG. 11D & FIG. 11E, primary cells, and n=3/group) using an anti-α7 nAChR antibody. Immunofluorescent staining (FIG. 11C, scale bars 20 μm) of the brain tissues was also performed using an anti-α7 nAChR antibody. p<0.05 was considered significant and marked as *; p<0.01 and p<0.001 were both considered highly significant and marked as ** and ***, respectively.
A RIPA buffer (50 mM Tris.HCl, pH 8.0, 280 mM NaCl, 0.5% NP-40, 1% C24H39NaO4, 0.2 mM EDTA, 2 mM EGTA and 10% glycerol) supplemented with protease inhibitors (Millipore-Sigma, catalog #S8830) and phosphatase inhibitors (Millipore-Sigma, catalog #4906845001) was used to lyse the brain tissues and cultured cells with brief sonication on ice. Protein concentrations of the lysates were determined using a Bio-Rad DC protein assay kit (Bio-Rad, catalog #5000111). […]

COc1cc(OC)c(NC(=O)Nc2cc(C)on2)cc1Cl [PAM, 1-(5-chloro-2,4-dimethoxy-phenyl)-3-(5-methyl-isoxazol-3-yl)-urea]
OPT maximum speed (iTat mice [1]; Wt and iTat mice): increases of the maximum speed of male Wt mice but not other mice | OPT total travel distance (iTat mice [1]; Wt mice): some improvement of the travel distance of Wt mice | OPT total travel distance (iTat mice [1]; iTat mice): improvement of the travel distance of iTat mice | MWZ probe test latency to platform (iTat mice [2]): decreases of latency to platform in both male iTat and Wt mice | MWZ probe test platform entries, time at platform, distance to platform (iTat mice [2]): no differences | MWZ probe test time at target quadrant and distance to target quadrant (iTat mice [2]): reversed by PAM treatment with the differences in distance to target quadrant | MWZ training stage cumulative travel distance (iTat mice [2]): differences of cumulative travel times in male iTat mice on day 4 and female iTat mice on day 2 | MWZ training stage escape latency and cumulative distance (iTat mice [2]): only some improvements on male Wt mice | MWZ training stage escape latency time (iTat mice [2]): differences of escape latency time in male iTat mice on day 4 and 5 and female iTat mice on day 2 and 4 | α7 nAChR expression (α7 nAChR; cortex of iTat mice): increased in cortex | α7 nAChR expression (α7 nAChR; hippocampus of iTat mice): only decreased in hippocampus by both Tat expression and PAM treatment
